Assay [1] relates to HL-60. Kind of assay: Cell viability in TPA-induced superoxide (O2-) generation in human promyelocytic leukemia HL-60 cells, at 100 uM concentration. The class given is functional.
The test system of assay [2] is HL-60. The assay can be described thus: Inhibitory activity against TPA-induced superoxide (O2-) generation in human promyelocytic leukemia HL-60 cells, at 100 uM concentration. The class given is functional.

For orientation: inhibition means the drop in the measured response relative to a control, in per cent. High values mean a strong effect, low ones a weak effect. In the assay with HL-60 [1], `COc1cc(/C=C/C(=O)O[C@H]2[C@@H](O)[C@@H](O)[C@H](OC(=O)/C=C/c3ccc(OC(C)=O)c(OC)c3)[C@@H](O)[C@@H]2O)ccc1OC(C)=O` showed a Cell viability of approximately 72%. For the same compound, the inhibition at 100 µM in the assay with HL-60 [2] is approximately 20%.
Regarding `COc1cc(/C=C/C(=O)O[C@H]2[C@@H](O)[C@@H](O)[C@H](OC(=O)/C=C/c3ccc(O)c(OC)c3)[C@@H](O)[C@@H]2O)ccc1O`, in the assay with HL-60 [1], the Cell viability is approximately 80%. Moreover, the inhibition at 100 µM with HL-60 [2] was approximately 5%.
Regarding `COc1cc(/C=C/C(=O)O[C@@H]2[C@H](O)[C@@H](O)[C@H](O)[C@@H](O)[C@@H]2OC(=O)/C=C/c2ccc(O)c(OC)c2)ccc1O`, the Cell viability in the assay with HL-60 [1] is listed as approximately 80%. This compound gave an inhibition at 100 µM in the assay with HL-60 [2] of approximately 20%.
With `COc1cc(/C=C/C(=O)O[C@@H]2[C@H]3OC4(CCCCC4)O[C@@H]3[C@@H](OC(=O)/C=C/c3ccc(OC(C)=O)c(OC)c3)[C@@H]3OC4(CCCCC4)O[C@H]23)ccc1OC(C)=O`, in the assay with HL-60 [1], the Cell viability was approximately 60%. The compound further gave an inhibition at 100 µM with HL-60 [2] of approximately 25%.
On to `COC(=O)/C=C/c1ccc(O)c(OC)c1`, for which the Cell viability with HL-60 [1] is recorded as approximately 80%. The compound also had an inhibition at 100 µM in the assay with HL-60 [2] of approximately 2%.
On the same counts, the results for `COc1cc(/C=C/C(=O)O[C@@H]2[C@H](O)[C@H](OC(C)=O)[C@@H](OC(C)=O)[C@H](OC(C)=O)[C@H]2OC(C)=O)ccc1OC(C)=O` are approximately 45% and approximately 5%.
On the same counts, the results for `COc1cc(/C=C/C(=O)O[C@@H]2[C@H]3OC4(CCCCC4)O[C@@H]3[C@@H](OC(=O)/C=C/c3ccc(O)c(OC)c3)[C@@H]3OC4(CCCCC4)O[C@H]23)ccc1O` are approximately 60% and approximately 30%.
In the assay on HL-60 [1], `COc1cc(/C=C/C(=O)O)ccc1OC(C)=O` came in with a Cell viability of approximately 82%. The compound also gave an inhibition at 100 µM with HL-60 [2] of approximately 2%.
As for `COc1cc(/C=C/C(=O)O[C@@H]2[C@H](OC(C)=O)[C@@H](OC(C)=O)[C@H](OC(C)=O)[C@@H](OC(C)=O)[C@@H]2OC(=O)/C=C/c2ccc(OC(C)=O)c(OC)c2)ccc1OC(C)=O`, in the assay on HL-60 [1], the Cell viability is given as approximately 60%. This compound gave an inhibition at 100 µM in the assay on HL-60 [2] of approximately 100%.
The like results for `CCOC(=O)/C=C/c1ccc(O)c(OC)c1` [ETHYL FERULATE] were, in that order, approximately 80% and approximately 9%.
On the same counts, the results for `COc1cc(/C=C/C(=O)O)ccc1O` [FERULATE] are approximately 80% and approximately 12%.

Source of the values: ChEMBL document CHEMBL1133211, “Synthesis of feruloyl-myo-inositols and their inhibitory effects on superoxide generation” (2000).
